Reference: patent US7838512B2, “DNA damaging agents in combination with tyrosine kinase inhibitors” (Arch Development Corporation, priority 1994, dated 2010)

Assays:
tumor [1] = settings: alone, in vivo; cited from earlier work
pancreatic cancer cell = settings: in vitro; cited from earlier work
p56/p53^lyn [2] = assay: Anti-Lyn immune complex kinase assay from irradiated (200 cGy) or H2O2-treated HL-60 cells; type: cell-based, human; settings: for effect on X-ray-induced p56/p53^lyn activity: HL-60 cells, 200 cGy, harvested at 12 hours
Method: HL-60 myeloid leukemia cells were grown in RPMI-1640 medium containing 15% heat-inactivated fetal bovine serum (FBS) supplemented with 100 units/ml penicillin, […], 2 mM L-glutamine, 1 mM sodium pyruvate and 1 mM non-essential amino acids. Cells in logarithmic growth phase were suspended in complete RPMI-1640 medium with 0.5% FBS 18 hours prior to irradiation.
Irradiation was performed at room temperature using a Gammacell 1000 (Atomic Energy of Canada, Ottawa) under aerobic conditions with a ^137Cs source emitting at a fixed dose rate of 13.3 Gy/min as determined by dosimetry.
Cells (2−3×10^7) were washed twice with ice cold phosphate buffered saline (PBS) and lysed in 2 ml of lysis buffer (20 mM Tris, pH 7.4, 150 mM NaCl, 1% NP-40, 1 mM sodium vanadate, 1 mM phenylmethylsulfonyl fluoride, 1 mM DTT, and […] of leupeptin and aprotinin). After incubation on ice for 30 min, insoluble material was removed by centrifugation at 1400 rpm for 10 min at 4° C. Soluble proteins were precleared by incubation with 5 mg/ml rabbit anti-mouse IgG for 1 hour at 4° C. and then addition of protein A sepharose for 30 min.
The supernatants were incubated with 2.5 μl of anti-human Fyn, 2 μl of anti-human Lyn, 3 μl of anti-human Lyk (N-terminal) or 3 μl of anti-Src antibody (UBI, Lake Placid, N.Y.) for 1 hour at 4° C. followed by 30 min with protein A-sepharose. The immune complexes were washed three times with lysis buffer, once with kinase buffer (20 mM HEPES, pH 7.0, 10 mM MnCl2 and 10 mM MgCl2) and resuspended in 30 μl of kinase buffer containing 1 mCi/ml [γ-^32P]ATP (3000 Ci/mmol; NEN, Boston, Mass.). The reaction was incubated for 10 min at 30° C. and terminated by the addition of 2× SDS sample buffer. The proteins were resolved in 10% SDS-polyacrylamide gels, dried and analyzed by autoradiography.
Immune complexes as prepared for autophosphorylation assays were washed three times with lysis buffer and once with kinase buffer. The beads were resuspended in 30 μl of kinase buffer containing 1 mCi/ml [γ-^32p]ATP and 3-5 mg of acid treated enolase (Sigma). The reaction was incubated for 10 min at 30° C. and terminated by the addition of 2× SDS sample buffer. The proteins were resolved by 10% SDS-PAGE. Equal loading of the enolase was determined by staining with Coomassie blue. The gels were then destained and analyzed by autoradiography. Radioactive bands were also excised from the gel and -quantitated by scintillation counting.

protein-tyrosine kinase = settings: compared with erbstatin; cited from earlier work
p56/p53^lyn [3] = assay: Anti-Lyn immune complex kinase assay (autophosphorylation and enolase phosphorylation) from drug-treated HL-60 cells; type: cell-based, human; settings: for effect of pretreatment on MMC-stimulated p56/p53^lyn activity: 10^−5 M inhibitor 1 h, then MMC 1 h
p59^fyn = assay: Anti-Fyn immune complex autophosphorylation assay from MMC-treated HL-60 cells; type: cell-based, human; settings: 10^−5 M MMC, 1 h
pp60^c-src = assay: Anti-Src immune complex kinase assay from MMC-treated HL-60 cells; type: cell-based, human; settings: 10^−5 M MMC, 1 h
p56/p53^lyn [4] = assay: Immunoblot of anti-Lyn immunoprecipitates (anti-Lyn, anti-P-Tyr); type: cell-based, human; settings: HL-60 cells, MMC 1 h versus control
Method: (§1) Immunoblot analysis. Immune complexes bound to protein A-sepharose were prepared as for the autophosphorylation assays. Proteins were separated in 10% SDS-polyacrylamide gels and transferred to nitrocellulose paper. The residual binding sites were blocked by incubating the filters in 5% dry milk in PBST (PBS/0.05% Tween-20) for 1 h at room temperature. The blots were subsequently incubated with anti-cdc2 or anti-phosphotyrosine (anti-P-Tyr; MAb 4G10, UBI). After washing twice with PBST, the filters were incubated for 1 h at room temperature with anti-mouse IgG (whole molecule) peroxidase conjugate (Sigma) in 5% milk/PBST. The filters were then washed and the antigen-antibody complexes visualized by the ECL detection system (Amersham, Arlington Heights, Ill.).

p56/p53^lyn [5] = assay: MMC added directly to the kinase reaction of anti-Lyn immune complexes from untreated HL-60 cells; type: biochemical, human; settings: 10^−5 M MMC added to kinase reaction, 15 min
Method: FIG. 4A, FIG. 4B and FIG. 4C. MMC-induced p56/p53^lyn activation is sensitive to tyrosine kinase inhibitors and is not a direct effect. […] Anti-Lyn immunoprecipitates were analyzed for phosphorylation of p56/p53^lyn and enolase. […] Lysates from untreated HL-60 cells were immunoprecipitated with anti-Lyn. […] The reaction was analyzed for phosphorylation of p56/p53^lyn and enolase.
The supernatant fraction was incubated with pre-immune rabbit serum, anti-Fyn, anti-Lyn, anti-Src (UBI, Lake Placid, N.Y.) or anti-cdc2 (sc-54, Santa Cruz Biotechnology, Santa Cruz, Calif.) antibodies for 1 h at 4° C. followed by 30 min after addition of protein A-sepharose. The immune complexes were washed three times with lysis buffer and once with kinase buffer (20 mM HEPES, pH 7.0, 10 mM MnCl2 and 10 mM MgCl2) and resuspended in […] of kinase buffer containing 1 mCi/ml [γ-^32P]ATP (3000 Ci/mmol; NEN, Boston, Mass.) with and without 5-8 mg of acid-treated enolase (Sigma). The reaction was incubated for 15 min at 30° C. and terminated by the addition of 2× SDS sample buffer. The proteins were separated in 10% SDS-polyacrylamide gels and analyzed by autoradiography. Radioactive bands were excised from certain gels and quantitated by scintillation counting.

p56/p53^lyn and p34^cdc2 = assay: Association of p56/p53^lyn with p34^cdc2 (GST-Lyn binding, coimmunoprecipitation); type: cell-based, human; settings: HL-60 cells, 10^−5 M MMC, 1 h
Method: Coimmunoprecipitation. Immunoprecipitations were performed with anti-p34^cdc2 at 5 mg/ml cell lysate. Immune complexes were collected on protein A-Sepharose beads (Pharmacia), washed three times with lysis buffer and twice with kinase buffer, resuspended in kinase buffer and then incubated for 10 min at 30° C. in the presence of 1 mCi/ml [γ-^32P]ATP. One aliquot of the kinase reaction was subjected to SDS-PAGE and autoradiography. The other aliquot was washed in lysis buffer to remove free ATP and then boiled in 20 mM Tris-HCl, pH 8.0 containing 0.5% SDS and 1 mM DTT to disrupt protein-protein interaction. After dilution to 0.1% SDS, a secondary immunoprecipitation was then performed by adding anti-Lyn antibody and protein A-Sepharose beads. The anti-Lyn immunoprecipitates were then subjected to SDS-PAGE and autoradiography.
Fusion protein binding assays. The plasmid encoding a glutathione S-transferase (GST)-Lyn (amino acids 1 to 243) fusion protein was obtained from T. Pawson, Toronto, Canada and transfected into E. coli DH5a (Pleiman et al., 1993). The fusion protein was induced with IPTG, purified by affinity chromatography using glutathione-Sepharose beads (Pharmacia) and equilibrated in lysis buffer. HL-60 cell lysates were incubated with 50 mg immobilized GST or GST-Lyn for 2 h at 4° C. […]

p34^cdc2 [6] = assay: Immunoprecipitation of p34^cdc2 and immunoblotting with anti-P-Tyr / anti-cdc2; type: cell-based, human; settings: HL-60 cells, MMC 1 h
Method: as §1

p56/p53^lyn [7] = assay: Phosphorylation of cdc2 peptides by anti-Lyn immune complexes; type: cell-based, human; settings: HL-60 cells, MMC 1 h
Method: Immune complexes were also resuspended in […] kinase buffer containing 1 mCi/ml [γ-^32P]ATP and either 100 mM cdc2 peptide (amino acids 7 to 20; […]; SEQ ID NO:1) or 100 mM mutated cdc2 peptide with Phe-15 substituted for Tyr-15 ([…]; SEQ ID NO:2). The reactions were incubated for 15 min at 30° C. and terminated by spotting on P81 phosphocellulose discs (GIBCO/BRL). The discs were washed twice with 1% phosphoric acid and twice with water before analysis by liquid scintillation counting.

p56/p53^lyn [8] = assay: p56/p53^lyn activity in U-937 myeloid leukemia cells; type: cell-based
p34^cdc2 [9] = assay: Anti-cdc2 immunoprecipitates assayed for phosphorylation of H1 histone; type: cell-based; settings: MMC-treated cells
[10] = test system: c-jun and EGR-1 gene expression; settings: irradiated HL-60 cells; cited from earlier work
cancer cell = settings: in vitro; cited from earlier work
tumor [11] = settings: nude mice; cited from earlier work
pp60^v-src = settings: cited from earlier work
pp110^gag-fes = settings: cited from earlier work
EGF-stimulated receptors = EGF-stimulated receptors (Homo sapiens, UniProt P00533); settings: intact cells, time and dose dependent; cited from earlier work
EGF-stimulated receptors, sequence (P00533 25-1210): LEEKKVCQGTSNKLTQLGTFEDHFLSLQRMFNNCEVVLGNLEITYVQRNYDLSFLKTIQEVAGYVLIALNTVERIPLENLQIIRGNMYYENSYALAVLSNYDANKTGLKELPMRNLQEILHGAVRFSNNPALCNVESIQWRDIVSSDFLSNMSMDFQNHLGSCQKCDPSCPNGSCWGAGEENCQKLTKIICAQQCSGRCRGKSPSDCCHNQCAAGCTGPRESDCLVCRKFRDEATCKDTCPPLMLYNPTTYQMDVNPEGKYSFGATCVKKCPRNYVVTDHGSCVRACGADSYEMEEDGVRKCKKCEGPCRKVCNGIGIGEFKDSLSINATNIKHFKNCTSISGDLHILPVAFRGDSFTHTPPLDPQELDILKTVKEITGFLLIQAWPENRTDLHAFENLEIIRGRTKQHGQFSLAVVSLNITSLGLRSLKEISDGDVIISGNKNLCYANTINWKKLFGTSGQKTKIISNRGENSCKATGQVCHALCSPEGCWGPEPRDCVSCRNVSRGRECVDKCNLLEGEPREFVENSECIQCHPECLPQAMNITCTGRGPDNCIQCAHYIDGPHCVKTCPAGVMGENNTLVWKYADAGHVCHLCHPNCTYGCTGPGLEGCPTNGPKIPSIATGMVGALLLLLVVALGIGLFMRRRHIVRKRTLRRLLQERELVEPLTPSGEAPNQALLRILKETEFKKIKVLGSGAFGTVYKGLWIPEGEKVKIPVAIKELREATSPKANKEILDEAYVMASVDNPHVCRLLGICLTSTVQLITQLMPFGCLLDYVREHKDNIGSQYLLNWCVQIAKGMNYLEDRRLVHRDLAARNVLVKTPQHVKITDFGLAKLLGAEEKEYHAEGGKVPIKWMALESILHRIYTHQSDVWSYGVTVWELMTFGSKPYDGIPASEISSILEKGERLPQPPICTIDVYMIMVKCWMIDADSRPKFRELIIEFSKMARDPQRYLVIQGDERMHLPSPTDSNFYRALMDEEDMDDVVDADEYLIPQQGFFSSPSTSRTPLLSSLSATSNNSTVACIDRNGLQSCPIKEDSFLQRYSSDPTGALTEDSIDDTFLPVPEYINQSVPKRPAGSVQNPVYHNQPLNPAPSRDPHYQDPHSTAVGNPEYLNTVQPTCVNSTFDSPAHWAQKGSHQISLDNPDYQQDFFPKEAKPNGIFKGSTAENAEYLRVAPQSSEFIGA

O=C1NC(=O)c2cc(Nc3ccccc3)c(Nc3ccccc3)cc21 [4,5-Dianilinophthalimide]
antitumor activity (tumor [1]): in vivo antitumor activity

CC(C)(C)c1cc(C=C(C#N)C#N)cc(C(C)(C)C)c1O [AG17]
pancreatic cancer cell growth (pancreatic cancer cell): inhibit pancreatic cancer cell growth

N#CC(C#N)=Cc1ccc(O)c(O)c1 [AG18]
pancreatic cancer cell growth (pancreatic cancer cell): inhibit pancreatic cancer cell growth

OO [H2O2]
phosphorylation of p56/p53^lyn or enolase (p56/p53^lyn [2]; HL-60 cells treated with 50 mM H2O2): did not show a detectable increase

O=C(O)c1cc(N(Cc2ccccc2O)Cc2cc(O)ccc2O)ccc1O [Lavendustin A]
inhibitory potency relative to erbstatin (protein-tyrosine kinase): about 50 times

CO[C@@]12[C@H](COC(N)=O)C3=C(C(=O)C(C)=C(N)C3=O)N1C[C@@H]1N[C@@H]12 [MMC, Mitomycin C]
increase in enolase phosphorylation (p56/p53^lyn [3]; 10^−5 M MMC, 30 min): 4.2 fold
p56/p53^lyn activity (autophosphorylation of anti-Lyn immunoprecipitates) (p56/p53^lyn [3]; 10^−5 M MMC, 1 h): increase
increase in enolase phosphorylation (p56/p53^lyn [3]; 10^−5 M MMC, 12 h): 4.1 fold
p56/p53^lyn activity (phosphorylation of p56/p53^lyn and enolase) (p56/p53^lyn [3]; 10^−6 and 10^−5 M MMC, 1 h): more pronounced stimulation
p56/p53^lyn activity (phosphorylation of p56/p53^lyn and enolase) (p56/p53^lyn [3]; 10^−8 and 10^−7 M MMC, 1 h): Increases
autophosphorylation of p59^fyn (p59^fyn): decreased
pp60^c-src activity (pp60^c-src): decrease
tyrosine phosphorylation of p56/p53^lyn (anti-P-Tyr immunoblot) (p56/p53^lyn [4]): increase in tyrosine phosphorylation
kinase activity of anti-Lyn immune complexes incubated with MMC (p56/p53^lyn [5]): decrease in kinase activity
interaction between p56/p53^lyn and p34^cdc2 (p56/p53^lyn and p34^cdc2): induces an interaction
tyrosine phosphorylation of p34^cdc2 (anti-P-Tyr reactivity of anti-cdc2 precipitates) (p34^cdc2 [6]): increase in reactivity
phosphorylation of mutated cdc2 peptide (Tyr-15 to Phe-15) by anti-Lyn complexes (p56/p53^lyn [7]): little phosphorylation
stimulation of cdc2 peptide phosphorylation by anti-Lyn immune complexes (p56/p53^lyn [7]; versus control cells, cdc2 peptide amino acids 7 to 20): ~2 fold
p56/p53^lyn activity (p56/p53^lyn [8]): increases in p56/p53^lyn activity
p34^cdc2 kinase activity (H1 histone phosphorylation) (p34^cdc2 [9]): loss of kinase activity

CC(=O)N[C@@H](CS)C(=O)O [NAC, N-acetyl cysteine]
effect on X-ray-induced p56/p53^lyn activity (p56/p53^lyn [2]; 30 mM NAC 1 hour): little effect
effect on induction of c-jun and EGR-1 gene expression [10]: completely blocks

COc1ccc(/C=C(\C#N)c2cccnc2)cc1OC [RG-13022]
cancer cell proliferation (cancer cell): suppress
tumor growth (tumor [11]): suppress

N#C/C(=C\c1cc(Cl)cc(Cl)c1)c1cccnc1 [RG-14620, (Z)-alpha-[(3,5-dichlorophenyl)methylene]-3-pyridylacetonitrile]
cancer cell proliferation (cancer cell): suppress
tumor growth (tumor [11]): suppress

N#C/C(=C\c1ccc(O)c(O)c1)C(N)=S [T47]
pancreatic cancer cell growth (pancreatic cancer cell): inhibit pancreatic cancer cell growth

Cc1c[nH]c2c1[C@@]13C[C@@H]1CN(C(=O)c1cc4cc(NC(=O)c5cc6ccccc6o5)ccc4[nH]1)C3=CC2=O [adozelesin]
p56/p53^lyn and enolase phosphorylation (p56/p53^lyn [3]; 2×10^−6 M, 1 h): stimulation of p56/p53^lyn and enolase phosphorylation

N.N.[Cl][Pt][Cl] [cis-platinum]
p56/p53^lyn kinase activity (phosphorylation of p56/p53^lyn and enolase) (p56/p53^lyn [3]; 10^−5 M, 1 h): stimulation of the p56/p53^lyn kinase

O=c1c(-c2ccc(O)cc2)coc2cc(O)cc(O)c12 [genistein]
effect of pretreatment on MMC-stimulated p56/p53^lyn activity (p56/p53^lyn [3]): completely blocks
effect on X-ray-induced p56/p53^lyn activity (p56/p53^lyn [2]; 10 μM inhibitor 1 hour): inhibited
inhibitory activity against pp60^v-src (pp60^v-src): specific inhibitory activity
inhibitory activity against pp110^gag-fes (pp110^gag-fes): specific inhibitory activity

CO[C@H]1[C@@H](OC)C[C@H](C)[C@@H](OC)C2=CC(=O)C=C(NC(=O)/C(C)=C/C=C\[C@H](OC)[C@@H](OC(N)=O)/C(C)=C/[C@@H]1C)C2=O [herbimycin A]
effect of pretreatment on MMC-stimulated p56/p53^lyn activity (p56/p53^lyn [3]): completely blocks
effect on X-ray-induced p56/p53^lyn activity (p56/p53^lyn [2]; 10 μM inhibitor 1 hour): inhibited
autophosphorylation of EGF-stimulated receptors (EGF-stimulated receptors): inhibit the autophosphorylation
